# Source: patent US20070128217A1 (priority 2003, published 2007)
# What was measured:
# [1] = tested on: rabbit serum obtained by immunizing a rabbit with the SARS-CoV strain Frankfurt 1; format: binding; design: Binding of a rabbit serum to linear peptides / Binding of a rabbit serum to looped peptides / Rabbit serum linear peptides / Rabbit serum looped peptides / Binding of a rabbit serum to linear peptides of protein N of SARS-CoV Urbani (Rabbit serum linear peptides) / Binding of a rabbit serum to looped/cyclic peptides of protein N of SARS-CoV Urbani (Rabbit serum looped peptides): unit not given here
# [2] = tested on: antibodies in sera from SARS patients (sera 1a, 1b, 2, 6, 37, 62, London, SARS-yellow, SARS-green); format: binding, human; design: Binding of serum 6 to linear peptides of protein X1 of SARS-CoV Urbani / Binding of serum 37 to linear peptides of protein X1 of SARS-CoV Urbani / Binding of serum 6 to looped/cyclic peptide (PEPSCAN-ELISA) / Binding of serum 37 to looped/cyclic peptide (PEPSCAN-ELISA) / Binding of serum 37 to looped/cyclic peptides of protein X1 of SARS-CoV Urbani / Binding of serum 6 to linear peptides of protein X2 / Binding of serum 37 to linear peptides of protein X2 / Binding of serum 37 to looped/cyclic peptides of protein X2 of SARS-CoV Urbani / Binding of serum 6 to linear peptides of protein M of SARS-CoV Urbani / Binding of serum 37 to linear peptides of protein M of SARS-CoV Urbani / Binding of serum 6 to looped/cyclic peptides of protein M of SARS-CoV Urbani / Binding of serum 37 to looped/cyclic peptides of protein M of SARS-CoV Urbani / Binding of serum 6 to linear peptides of protein X3 of SARS-CoV Urbani / Binding of serum 37 to linear peptides of protein X3 of SARS-CoV Urbani / Binding of serum 37 to looped/cyclic peptides of protein X3 of SARS-CoV Urbani / Binding of serum 6 to linear peptides of protein X4 of SARS-CoV Urbani / Binding of serum 37 to linear peptides of protein X4 of SARS-CoV Urbani / Binding of serum 37 to looped/cyclic peptides of protein X4 of SARS-CoV Urbani / Binding of serum 6 to linear peptides of protein X5 of SARS-CoV Urbani / Binding of serum 37 to linear peptides of protein X5 of SARS-CoV Urbani / Binding of serum 37 to looped/cyclic peptides of protein X5 of SARS-CoV Urbani / Binding of serum 6 to linear peptides of protein N of SARS-CoV Urbani / Binding of serum 37 to linear peptides of protein N of SARS-CoV Urbani / Binding of serum 6 to linear peptide (PEPSCAN-ELISA) / Binding of serum 1a to looped/cyclic peptides of protein N of SARS-CoV Urbani / Binding of serum 1b to looped/cyclic peptides of protein N of SARS-CoV Urbani / Binding of serum 2 to looped/cyclic peptides of protein N of SARS-CoV Urbani / Binding of serum 6 to looped/cyclic peptides of protein N of SARS-CoV Urbani / Binding of serum 37 to looped/cyclic peptides of protein N of SARS-CoV Urbani / Binding of serum 62 to looped/cyclic peptides of protein N of SARS-CoV Urbani / Binding of serum London to looped/cyclic peptides of protein N of SARS-CoV Urbani / Binding of serum SARS-green to looped/cyclic peptides of protein N of SARS-CoV Urbani: unit not given here
# [3] = tested on: control sera (pooled serum of ten healthy LUMC hospital workers; commercial negative donor pooled serum from the Dutch bloodbank); format: binding, human; design: Binding of Control serum LUMC to linear peptides / Binding of Control serum Blood-bank to linear peptides / Binding of Control serum LUMC to looped peptides / Binding of Control Serum Blood-Bank to Looped peptides / Binding of Control serum LUMC to linear peptides of the protein M of SARS-CoV Urbani / Binding of Control serum Blood-bank to linear peptides of the protein M of SARS-CoV Urbani / Binding of Control serum LUMC to looped peptides of the protein M of SARS-CoV Urbani / Binding of Control Serum Blood-Bank to Looped peptides of the protein M of SARS-CoV Urbani: unit not given here
sequence,measurement,setting,value
IDGSSGVANPAMDPI,Binding of a rabbit serum to linear peptides,[1],0.1
same,Binding of a rabbit serum to looped peptides,[1],0.5
same,Binding of serum 1a to linear peptides of protein X1 of SARS-CoV Urbani,[2],0.7
same,Binding of serum 1a to looped/cyclic peptides of protein X1 of SARS-CoV Urbani,[2],0.8
same,Binding of serum 1b to linear peptides of protein X1 of SARS-CoV Urbani,[2],0.6
same,Binding of serum 1b to looped/cyclic peptides of protein X1 of SARS-CoV Urbani,[2],0.7
same,Binding of serum 2 to linear peptides of protein X1 of SARS-CoV Urbani,[2],0.7
same,Binding of serum 2 to looped/cyclic peptides of protein X1 of SARS-CoV Urbani,[2],0.5
same,Binding of serum 6 to linear peptides of protein X1 of SARS-CoV Urbani,[2],0.5
same,Binding of serum 6 to looped/cyclic peptides of protein X1 of SARS-CoV Urbani,[2],0.3
same,Binding of serum 37 to linear peptides of protein X1 of SARS-CoV Urbani,[2],0.6
same,Binding of serum 37 to looped/cyclic peptides of protein X1 of SARS-CoV Urbani,[2],0.7
same,Binding of serum 62 to linear peptides of protein X1 of SARS-CoV Urbani,[2],0.6
same,Binding of serum 62 to looped/cyclic peptides of protein X1 of SARS-CoV Urbani,[2],0.6
same,Binding of serum London to linear peptides of protein X1 of SARS-CoV Urbani,[2],0.4
same,Binding of serum SARS-green to linear peptides of protein X1 of SARS-CoV Urbani,[2],0.3
same,Binding of serum SARS-green to looped/cyclic peptides of protein X1 of SARS-CoV Urbani,[2],0.6
same,Binding of serum SARS-yellow to linear peptides of protein X1 of SARS-CoV Urbani,[2],0.4
same,Binding of serum SARS-yellow to looped/cyclic peptides of protein X1 of SARS-CoV Urbani,[2],0.4
same,Binding of Control Serum Blood-Bank to Looped peptides,[3],0.6
same,Binding of Control serum Blood-bank to linear peptides,[3],0.6
same,Binding of Control serum LUMC to linear peptides,[3],0.6
same,Binding of Control serum LUMC to looped peptides,[3],0.7
IENATFFIFNKLVKD,Binding of a rabbit serum to linear peptides,[1],0.1
same,Binding of a rabbit serum to looped peptides,[1],0.5
same,Binding of serum 1a to linear peptides of protein X1 of SARS-CoV Urbani,[2],0.6
same,Binding of serum 1a to looped/cyclic peptides of protein X1 of SARS-CoV Urbani,[2],0.5
same,Binding of serum 1b to linear peptides of protein X1 of SARS-CoV Urbani,[2],0.5
same,Binding of serum 1b to looped/cyclic peptides of protein X1 of SARS-CoV Urbani,[2],0.4
same,Binding of serum 2 to linear peptides of protein X1 of SARS-CoV Urbani,[2],0.5
same,Binding of serum 2 to looped/cyclic peptides of protein X1 of SARS-CoV Urbani,[2],0.4
same,Binding of serum 6 to linear peptides of protein X1 of SARS-CoV Urbani,[2],0.3
same,Binding of serum 6 to looped/cyclic peptides of protein X1 of SARS-CoV Urbani,[2],0.2
same,Binding of serum 37 to linear peptides of protein X1 of SARS-CoV Urbani,[2],0.5
same,Binding of serum 37 to looped/cyclic peptides of protein X1 of SARS-CoV Urbani,[2],0.5
same,Binding of serum 62 to linear peptides of protein X1 of SARS-CoV Urbani,[2],0.5
same,Binding of serum 62 to looped/cyclic peptides of protein X1 of SARS-CoV Urbani,[2],0.5
same,Binding of serum London to linear peptides of protein X1 of SARS-CoV Urbani,[2],0.2
same,Binding of serum London to looped/cyclic peptides of protein X1 of SARS-CoV Urbani,[2],0.2
same,Binding of serum SARS-green to linear peptides of protein X1 of SARS-CoV Urbani,[2],0.2
same,Binding of serum SARS-green to looped/cyclic peptides of protein X1 of SARS-CoV Urbani,[2],0.1
same,Binding of serum SARS-yellow to linear peptides of protein X1 of SARS-CoV Urbani,[2],0.4
same,Binding of serum SARS-yellow to looped/cyclic peptides of protein X1 of SARS-CoV Urbani,[2],0.3
same,Binding of Control Serum Blood-Bank to Looped peptides,[3],0.5
same,Binding of Control serum Blood-bank to linear peptides,[3],0.4
same,Binding of Control serum LUMC to linear peptides,[3],0.3
same,Binding of Control serum LUMC to looped peptides,[3],0.5
IHTIDGSSGVANPAM,Binding of a rabbit serum to linear peptides,[1],0.1
same,Binding of a rabbit serum to looped peptides,[1],0.5
same,Binding of serum 1a to linear peptides of protein X1 of SARS-CoV Urbani,[2],0.7
same,Binding of serum 1a to looped/cyclic peptides of protein X1 of SARS-CoV Urbani,[2],0.5
same,Binding of serum 1b to linear peptides of protein X1 of SARS-CoV Urbani,[2],0.7
same,Binding of serum 1b to looped/cyclic peptides of protein X1 of SARS-CoV Urbani,[2],0.4
same,Binding of serum 2 to linear peptides of protein X1 of SARS-CoV Urbani,[2],0.8
same,Binding of serum 2 to looped/cyclic peptides of protein X1 of SARS-CoV Urbani,[2],0.3
same,Binding of serum 6 to linear peptides of protein X1 of SARS-CoV Urbani,[2],0.5
same,Binding of serum 6 to looped/cyclic peptides of protein X1 of SARS-CoV Urbani,[2],0.2
same,Binding of serum 37 to linear peptides of protein X1 of SARS-CoV Urbani,[2],0.7
same,Binding of serum 37 to looped/cyclic peptides of protein X1 of SARS-CoV Urbani,[2],0.3
same,Binding of serum 62 to linear peptides of protein X1 of SARS-CoV Urbani,[2],0.8
same,Binding of serum 62 to looped/cyclic peptides of protein X1 of SARS-CoV Urbani,[2],0.3
same,Binding of serum London to linear peptides of protein X1 of SARS-CoV Urbani,[2],0.5
same,Binding of serum London to looped/cyclic peptides of protein X1 of SARS-CoV Urbani,[2],0.2
same,Binding of serum SARS-green to linear peptides of protein X1 of SARS-CoV Urbani,[2],0.5
same,Binding of serum SARS-green to looped/cyclic peptides of protein X1 of SARS-CoV Urbani,[2],0.3
same,Binding of serum SARS-yellow to linear peptides of protein X1 of SARS-CoV Urbani,[2],0.6
same,Binding of serum SARS-yellow to looped/cyclic peptides of protein X1 of SARS-CoV Urbani,[2],0.2
same,Binding of Control Serum Blood-Bank to Looped peptides,[3],0.4
same,Binding of Control serum Blood-bank to linear peptides,[3],0.7
same,Binding of Control serum LUMC to linear peptides,[3],0.8
same,Binding of Control serum LUMC to looped peptides,[3],0.4
IIKLVFLWLLWPVTL,Rabbit serum linear peptides,[1],0.1
same,Rabbit serum looped peptides,[1],0.0
same,Binding of serum 1a to linear peptides of protein M of SARS-CoV Urbani,[2],0.7
same,Binding of serum 1a to looped/cyclic peptides of protein M of SARS-CoV Urbani,[2],0.6
same,Binding of serum 1b to linear peptides of protein M of SARS-CoV Urbani,[2],0.5
same,Binding of serum 1b to looped/cyclic peptides of protein M of SARS-CoV Urbani,[2],0.7
same,Binding of serum 2 to linear peptides of protein M of SARS-CoV Urbani,[2],0.4
same,Binding of serum 2 to looped/cyclic peptides of protein M of SARS-CoV Urbani,[2],0.5
same,Binding of serum 6 to linear peptides of protein M of SARS-CoV Urbani,[2],0.4
same,Binding of serum 6 to looped/cyclic peptides of protein M of SARS-CoV Urbani,[2],0.5
same,Binding of serum 37 to linear peptides of protein M of SARS-CoV Urbani,[2],0.3
same,Binding of serum 37 to looped/cyclic peptides of protein M of SARS-CoV Urbani,[2],0.5
same,Binding of serum 62 to linear peptides of protein M of SARS-CoV Urbani,[2],0.3
same,Binding of serum 62 to looped/cyclic peptides of protein M of SARS-CoV Urbani,[2],0.6
same,Binding of serum London to linear peptides of protein M of SARS-CoV Urbani,[2],0.3
same,Binding of serum London to looped/cyclic peptides of protein M of SARS-CoV Urbani,[2],0.2
same,Binding of serum SARS-green to linear peptides of protein M of SARS-CoV Urbani,[2],0.4
same,Binding of serum SARS-green to looped/cyclic peptides of protein M of SARS-CoV Urbani,[2],0.3
same,Binding of serum SARS-yellow to linear peptides of protein M of SARS-CoV Urbani,[2],0.2
same,Binding of serum SARS-yellow to looped/cyclic peptides of protein M of SARS-CoV Urbani,[2],0.4
same,Binding of Control Serum Blood-Bank to Looped peptides of the protein M of SARS-CoV Urbani,[3],0.7
same,Binding of Control serum Blood-bank to linear peptides of the protein M of SARS-CoV Urbani,[3],0.5
same,Binding of Control serum LUMC to linear peptides of the protein M of SARS-CoV Urbani,[3],0.6
same,Binding of Control serum LUMC to looped peptides of the protein M of SARS-CoV Urbani,[3],0.6
